Measured values: patent US20250051263A1, “NOVEL IONIZABLE LIPIDS AND LIPID NANOPARTICLES AND METHODS OF USING THE SAME” (Sail Biomedicines, Inc., priority 2021, published 2025)

Tests used:
[1] = mRNA encapsulation efficiency, Quant-iT RiboGreen RNA Assay; assay type: physicochemical
From the text: (§1) All other compositions (i.e., compositions of MC3 (a commercially available ionizable lipid having a chemical name of (6Z,9Z,28Z,31Z)-heptatriacont-6,9,28,31-tetraene-19-yl 4-(dimethylamino)butanoate, and compositions of novel ionizable lipids 7669, 7671, 7668, 767, 7650) are composed of ionizable lipid:structural lipid:sterol:PEG-lipid (SDA lipid #:DSPC:cholesterol:14:0 PEG2000 PE) at a molar ratio of […], respectively. Lipids are solubilized in ethanol. Compositions are then handled as above, except the formulations are maintained at ionizable lipid to mRNA N:P ratio of 6:1. The lipid mix and mRNA solution are mixed at a 1:3 ratio by volume, respectively, on a NanoAssemblr Ignite (Precision Nanosystems) at a total flow rate of 9 mL/min. Resulting compositions are then loaded into Slide-A-Lyzer G2 dialysis cassettes (10 k MWCO) and dialyzed in 200 times sample volume of 1×PBS for 4 hrs at room temp with gentle stirring. The PBS is refreshed, and the compositions are further dialyzed for at least 14 hrs at 4° C. with gentle stirring. The dialyzed compositions are then collected and concentrated by centrifugation at 2000×g using Amicon Ultra centrifugation filters (100 k MWCO). Concentrated particles are characterized for size, polydispersity, and particle concentration using Zetasizer Ultra (Malvern Panalytical) and for mRNA encapsulation efficiency using Quant-iT RiboGreen RNA Assay Kit (ThermoFisher Scientific).
(§2) The lipid mix and mRNA solution were mixed at a 1:3 ratio by volume, respectively, on the NanoAssemblr Ignite (Precision Nanosystems) at a total flow rate of 9 mL/min. Resulting formulations were then loaded into Slide-A-Lyzer G2 dialysis cassettes (10 k MWCO) and dialyzed in 200 times sample volume of 1×PBS for 2 hrs at room temperature. The PBS was refreshed, and the formulations were further dialyzed for at least 14 hrs at 4° C. with gentle stirring. The dialyzed formulations were then collected and concentrated by centrifugation at 3000×g using Amicon Ultra centrifugation filters (100 k MWCO). The concentrated formulations were characterized for size, polydispersity, and particle concentration using Zetasizer Ultra (Malvern Panalytical) and for mRNA encapsulation efficiency using Quant-iT RiboGreen RNA Assay Kit (ThermoFisher Scientific).
(§3) For each LNP composition, the lipid mix and mRNA solution were mixed at a 1:3 ratio by volume, respectively, on a NanoAssemblr Ignite (Precision Nanosystems) at a total flow rate of 9 mL/min. The resulting compositions were then loaded into Slide-A-Lyzer G2 dialysis cassettes (10 k MWCO) and dialyzed in 200 times sample volume of 1×PBS for 2 hours at room temperature with gentle stirring. The PBS was refreshed, and the compositions were further dialyzed for at least 14 hours at 4° C. with gentle stirring. The dialyzed compositions were then collected and concentrated by centrifugation at 3000×g using Amicon Ultra centrifugation filters (100 k MWCO). The concentrated particles were characterized for size, polydispersity, and particle concentration using Zetasizer Ultra (Malvern Panalytical) and for mRNA encapsulation efficiency using Quant-iT RiboGreen RNA Assay Kit (ThermoFisher Scientific).

Balb/c mice = experiment: In-vivo bioluminescent imaging after IV injection of Fluc mRNA LNP; settings: for Bioluminescence (IV) Liver / Bioluminescence (IV) Lung / Bioluminescence (IV) Spleen / Bioluminescence (IV) Whole Body / Spleen: Liver Ratio: Example 5 LNP (DOPE 35:16:46.5:2.5), 5 μg FLUC + 5 μg EPO; for Bioluminescence (IV) Liver / Bioluminescence (IV) Lung / Bioluminescence (IV) Spleen / Bioluminescence (IV) Whole Body / Bioluminescence Liver / Bioluminescence Lung / Bioluminescence Spleen: 4-6 hours post-dose; for Bioluminescence (IV) Liver / Bioluminescence (IV) Lung / Bioluminescence (IV) Spleen / Bioluminescence (IV) Whole Body / Spleen: Liver Ratio / Bioluminescence Liver / Bioluminescence Lung / Bioluminescence Spleen: IV; for Spleen: Liver Ratio: ratio of bioluminescence; for Bioluminescence Liver / Bioluminescence Lung / Bioluminescence Spleen: 5 ug Fluc+5 ug EPO mRNA; for bioluminescence in the liver, spleen, and lung: used as part of an ionizable lipid scaffold (LNP), Table 1
Method: 8-9 week old female Balb/c mice are utilized for bioluminescence-based ionizable lipid screening efforts. Mice are obtained from Jackson Laboratories (JAX Stock: 000651) and allowed to acclimate for one week prior to manipulations. Animals are placed under a heat lamp for a few minutes before introducing them to a restraining chamber. The tail is wiped with alcohol pads (Fisher Scientific) and 100 μL of a lipid nanoparticle composition descrbed above containing 10 ug total mRNA (5 ug Fluc+5 ug EPO) is injected intravenously using a 29 G insulin syringe (Covidien). Any resulting bleeding is stemmed using a sterile gauze pad (Fisher Scientific) and animals are placed back into their home cage. 4-6 hours post-dose, animals are injected with 200 μL of 15 mg/mL D-Luciferin (GoldBio) and placed in an isoflurane induction chamber set to deliver 2.5% isoflurane delivered at an oxygen flow rate of 1-2 liters per min. After 5 minutes of isoflurane exposure, mice are placed in set nose cones inside the IVIS Lumina LT imager (PerkinElmer). LivingImage software is utilized for imaging. Whole body bio-luminescence is captured at auto-exposure after which animals are removed from the IVIS and placed into a CO2 chamber for euthanasia. Cardiac puncture is performed on each animal after placing it in dorsal recumbency, and blood collection is performed using a 25 G insulin syringe (BD). Blood is collected in Lithium-Heparin coated tubes (Fisher Scientific) and immediately placed on ice. Once all blood samples are collected, tubes are spun at 2000 G for 10 minutes using a tabletop centrifuge and plasma is aliquoted into individual Eppendorf tubes (Fisher Scientific) and stored at −80 C for subsequent EPO quantification. EPO levels in plasma are determined using EPO MSD kit (Meso Scale Diagnostics).
8-9 week old female Balb/c mice were utilized for bioluminescence-based ionizable lipid screening efforts. Mice were obtained from Jackson Laboratories (JAX Stock: 000651) and allowed to acclimate for one week prior to manipulations. Animals were placed under a heat lamp for a few minutes before introducing them to a restraining chamber. The tail was wiped with alcohol pads (Fisher Scientific) and, for each LNP composition descrbed above, 100 μL of a lipid nanoparticle composition descrbed above containing 10 μg total mRNA (5 μg Fluc+5 μg EPO, 5 μg Fluc+5 μg Cre, or 5 μg EGFP) was injected intravenously using a 29 G insulin syringe (Covidien).
4-6 hours post-dose, animals were injected with 200 μL of 15 mg/mL D-Luciferin (GoldBio), and placed in set nose cones inside the IVIS Lumina LT imager (PerkinElmer). LivingImage software was utilized for imaging. Whole body bio-luminescence was captured at auto-exposure after which animals are removed from the IVIS and placed into a CO2 chamber for euthanasia. Cardiac puncture was performed on each animal after placing it in dorsal recumbency, and blood collection was performed using a 25 G insulin syringe (BD). Once all blood samples were collected, tubes are spun at 2000 G for 10 minutes using a tabletop centrifuge and plasma was aliquoted into individual Eppendorf tubes (Fisher Scientific) and stored at −80° C. for subsequent EPO quantification. EPO levels in plasma were determined using EPO MSD kit (Meso Scale Diagnostics).

[2] = LNP size and polydispersity, Zetasizer Ultra; assay type: physicochemical
From the text: as §1, §2, §3

[3] = Example 5 LNP lipid:DOPE:Plant Cholesterol:DMPE-PEG2k 35:16:46.5:2.5, FLUC/EPO 1:1 mRNA, N:P 6:1
[4] = LNP ionizable lipid:DOPE:Plant Chol.:DMPE-PEG2k 35:16:46.5:2.5 (Table 1)
[5] = LNP lipid:DOPE:Plant Chol.:DMPE-PEG2k 35:16:46.5:2.5 (Table 1)
[6] = LNP lipid:DSPC:Plant Chol.:DMPE-PEG2k 50:10:38.5:1.5
[7] = LNP ionizable lipid:DSPC:Plant Chol.:DMPE-PEG2k 50:10:38.5:1.5

| SMILES | % EE [1, 3] [%] | % EE [1, 4] [%] | Bioluminescence (IV) Liver (Balb/c mice) | Bioluminescence (IV) Lung (Balb/c mice) | Bioluminescence (IV) Spleen (Balb/c mice) | Bioluminescence (IV) Whole Body (Balb/c mice) | Spleen: Liver Ratio (Balb/c mice) | Bioluminescence Liver (Balb/c mice; [5]) | Bioluminescence Lung (Balb/c mice; [5]) | Bioluminescence Spleen (Balb/c mice; [5]) | Bioluminescence Liver (Balb/c mice; [6]) | Bioluminescence Lung (Balb/c mice; [6]) | Bioluminescence Spleen (Balb/c mice; [6]) | bioluminescence in the liver, spleen, and lung (Balb/c mice) | PDI [2, 3] | Size (nm) [2, 3] [nm] | PDI [2, 4] | Size (nm) [2, 4] [nm] | PDI [2, 7] | Size (nm) [2, 7] [nm] |
| --- | --- | --- | --- | --- | --- | --- | --- | --- | --- | --- | --- | --- | --- | --- | --- | --- | --- | --- | --- | --- |
| CCCCCCCCCCCOC(=O)CCCCCN(CCCCCCCC(=O)OC(CCCCCCCC)CCCCCCCC)CCNC(=O)/C=C/C(=O)NCCN(CCCCCCCC(=O)OC(CCCCCCCC)CCCCCCCC)CCCCCC(=O)OCCCCCCCCCCC [Compound 2252, 1-octylnonyl 8-[2-[[(E)-4-[2-[[8-(1-octylnonoxy)-8-oxo-octyl]-(6-oxo-6-undecoxy-hexyl)amino]ethylamino]-4-oxo-but-2enoyl]amino]ethyl-(6-oxo-6-undecoxy-hexyl)amino]octanoate] | 94.5 | 94.5 | 1.5E+07 | 3.3E+03 | 2.3E+05 | 7.2E+07 | 0.015 | 1.52E+07 | 3.27E+03 | 2.32E+05 | 2.41E+05 | 1.03E+04 | 4.69E+05 | improved bioluminescence | 0.13 | 70.0 | 0.13 | 69.98 | 0.05 | 126.40 |
| C=C(CN(CCCCCCCC(=O)OC(CCCCCCCC)CCCCCCCC)CCCCCC(=O)OCCCCCCCCCCC)CN(CCCCCCCC(=O)OC(CCCCCCCC)CCCCCCCC)CCCCCC(=O)OCCCCCCCCCCC [Compound 2253, 1-octylnonyl 8-[2-[[[8-(1-octylnonoxy)-8-oxo-octyl]-(6-oxo-6-undecoxy-hexyl)amino]methyl]allyl-(6-oxo-6-undecoxy-hexyl)amino]octanoate] | 82.7 | 82.7 | 1.3E+03 | 7.2E+02 | 1.2E+03 | 3.8E+03 | 0.937 | 1.33E+03 | 7.18E+02 | 1.24E+03 | 1.30E+03 | 6.16E+02 | 9.98E+02 | improved bioluminescence | 0.23 | 107.9 | 0.23 | 107.87 | 0.18 | 120.70 |
| CCCCCCCCCC(=O)OCCCCCCCN(CCCCCCCC(=O)OC(CCCCCCCC)CCCCCCCC)CCNC(=O)CCC(=O)NCCN(CCCCCCCOC(=O)CCCCCCCCC)CCCCCCCC(=O)OC(CCCCCCCC)CCCCCCCC [Compound 2272, 7-[2-[[4-[2-[7-decanoyloxyheptyl-[8-(1-octylnonoxy)-8-oxo-octyl]amino]ethylamino]-4-oxo-butanoyl]amino]ethyl-[8-(1-octylnonoxy)-8-oxo-octyl]amino]heptyl decanoate] | 92.6 | – | 1.8E+07 | 1.5E+04 | 1.0E+06 | 1.3E+08 | 0.055 | – | – | – | – | – | – | – | 0.07 | 68.7 | – | – | – | – |
| CCCCCCCCC(CCCCCCCC)OC(=O)CCCCCCCN(CCCCCCCC(=O)OC(CCCCCCCC)CCCCCCCC)CCNC(=O)CCC(=O)NCCN(CCCCCCCC(=O)OC(CCCCCCCC)CCCCCCCC)CCCCCCCC(=O)OC(CCCCCCCC)CCCCCCCC [Compound 2275, 1-octylnonyl 8-[2-[[4-[2-[bis[8-(1-octylnonoxy)-8-oxo-octyl]amino]ethylamino]-4-oxo-butanoyl]amino]ethyl-[8-(1-octylnonoxy)-8-oxo-octyl]amino] octanoate] | 94.7 | – | 6.8E+07 | 1.6E+04 | 2.3E+05 | 4.8E+08 | 0.003 | – | – | – | – | – | – | – | 0.10 | 67.4 | – | – | – | – |
| CCCCCCCCCCCNC(=O)CCCCCN(CCCCCCCC(=O)NC(CCCCCCCC)CCCCCCCC)CCNC(=O)CCC(=O)NCCN(CCCCCCCC(=O)NC(CCCCCCCC)CCCCCCCC)CCCCCC(=O)NCCCCCCCCCCC [Compound 2282, N,N′-bis[2-[[8-(1-octylnonylamino)-8-oxo-octyl]-[6-oxo-6-(undecylamino)hexyl]amino]ethyl]butanediamide] | 94.7 | – | 5.7E+07 | 3.8E+04 | 5.4E+06 | 7.7E+08 | 0.092 | – | – | – | – | – | – | – | 0.16 | 73.1 | – | – | – | – |
